Reference: US20240423923A1, “EXTRACELLULAR VESICLES FROM MICROALGAE, THEIR BIODISTRIBUTION UPON ADMINISTRATION, AND USES” (AGS THERAPEUTICS SAS, priority 2022, published 2024)

Legend:
[1] = medial prefrontal cortex, anterior cingulate cortex, central nucleus of amygdala; cited from earlier work
[2] = target: Flagellin Sensing 2 receptor (FLS2) (Arabidopsis thaliana) (UniProt Q9FL28); assay: cell-based or functional assay
Chain of UniProt Q9FL28 (Q9FL28 24-1173): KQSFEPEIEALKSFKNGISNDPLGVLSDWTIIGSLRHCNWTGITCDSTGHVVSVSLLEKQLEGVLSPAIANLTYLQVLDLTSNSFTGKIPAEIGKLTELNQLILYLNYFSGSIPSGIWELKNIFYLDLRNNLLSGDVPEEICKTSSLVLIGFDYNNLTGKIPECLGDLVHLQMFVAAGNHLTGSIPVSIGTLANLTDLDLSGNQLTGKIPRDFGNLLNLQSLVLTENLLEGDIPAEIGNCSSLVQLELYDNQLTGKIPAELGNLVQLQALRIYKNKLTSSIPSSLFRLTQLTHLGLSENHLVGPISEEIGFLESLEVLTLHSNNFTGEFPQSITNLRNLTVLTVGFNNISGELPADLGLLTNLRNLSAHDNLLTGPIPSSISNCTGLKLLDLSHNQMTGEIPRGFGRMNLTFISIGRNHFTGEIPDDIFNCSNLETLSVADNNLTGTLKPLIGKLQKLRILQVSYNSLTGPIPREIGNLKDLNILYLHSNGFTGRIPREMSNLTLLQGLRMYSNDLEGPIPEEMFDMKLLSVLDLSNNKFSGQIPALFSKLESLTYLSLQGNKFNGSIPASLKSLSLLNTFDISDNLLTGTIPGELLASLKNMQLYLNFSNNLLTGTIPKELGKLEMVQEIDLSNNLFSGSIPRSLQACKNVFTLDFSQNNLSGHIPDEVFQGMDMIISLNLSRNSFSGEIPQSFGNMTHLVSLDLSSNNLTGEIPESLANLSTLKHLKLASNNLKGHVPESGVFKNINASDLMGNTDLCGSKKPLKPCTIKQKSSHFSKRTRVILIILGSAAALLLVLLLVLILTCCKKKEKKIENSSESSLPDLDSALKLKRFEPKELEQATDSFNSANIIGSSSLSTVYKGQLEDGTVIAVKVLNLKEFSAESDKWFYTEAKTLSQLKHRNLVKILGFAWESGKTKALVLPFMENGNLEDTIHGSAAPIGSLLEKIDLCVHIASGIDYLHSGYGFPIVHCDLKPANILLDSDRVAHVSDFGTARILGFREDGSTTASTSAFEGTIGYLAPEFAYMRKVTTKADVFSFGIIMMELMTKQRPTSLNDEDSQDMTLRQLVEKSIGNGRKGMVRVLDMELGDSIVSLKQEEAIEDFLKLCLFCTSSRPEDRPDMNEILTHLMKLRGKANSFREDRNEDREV

Chain of flg22 peptide (22 amino acid synthetic peptide that mimics the conserved N-terminal region of bacterial flagellin) (P21184 30-51): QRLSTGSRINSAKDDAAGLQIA

Row | Molecule | increase in Fos-like immunoreactivity [1] | stomatal closure assay; effect of flg22-loaded EVs compared with free flg22 peptide [2] [nM]
1 | CCN(CC)C(=O)[C@@H]1C=C2c3cccc4[nH]cc(c34)C[C@H]2N(C)C1 [LSD, Lysergic acid diethylamide] | a five- to eight-fold increase | 
2 | flg22 peptide (22 amino acid synthetic peptide that mimics the conserved N-terminal region of bacterial flagellin) |  | > 10
